In patent US10160771B2, “Hepatitis C virus inhibitors and uses thereof in preparation of drugs” (priority 2014, dated 2018):
pEC50: −log10 of the molar value.

Legend:
[1] = Cell Titer-fluor cell activity assay in HCV-1b replicon cells (CC50); assay type: cell-based
In short: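 Con1 genotype 1b replicon cells (E1202G, T1280I, K1846T adaptive mutations), 8000 cells/well, exposed to 6-point 5-fold dilutions from 100, 10 or 1 nM top concentration in 0.5% DMSO, duplicate wells, 3 days at 37 °C. Viability read by Cell Titer-fluor (Ex 405/Em 515 nm) after 30 min; CC50 from nonlinear fit of inhibition %.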

[2] = in vitro; assay type: cell-based; details: HCV 1a replicon cells, 3 days, Cell Titer-fluor
Experimental: The EC50 and CC50 values of anti-HCV compounds were determined by HCV genotype 1a (HCV-1a) and 1B (HCV-1b) stable transfer replication (replicon) cells. The source of genotype 1a replicon is H77 clones containing K1691R, K2040R and S2204I adaptive mutations. The source of genotype 1b replicon is Con1 clones containing E1202G, T1280I and K1846T adaptive mutations.
HCV Replicon Cell Lines: HCV-1a and HCV-1b Cells
The compound powder was dissolved in 100% DMSO. Then the compound was diluted 5 times with 6 points, and added into the cell plate with Echo liquid handler. Ensure the final concentration of DMSO was 0.5%. Each compound was tested in double holes. Maximum initial concentration was 100, 10 or 1 nM, 5 times dilution, 6 points.
b) Cell Culture (HCV-1a or HCV-1b Replicon Cell):
1) absorbing the culture supernatant of the cell culture and washing the cells with 10 mL PBS.
2) adding preheated pancreatin to the washed cell culture flasks, rotating culture bottle to make the bottom of the culture bottle uniformly covered by pancreatin, then placed into 37° C., 5% CO2 incubator to digest.
3) suspending cells in each T150 culture flask with 10-15 mL culture medium, absorbing 0.1 mL liquid and diluting 2 times by trypan blue solution as counted.
4) diluting cells to 8×10^4/mL with the culture medium, adding the diluted cells into the compound-containing 96-well plate (Greiner, Cat.#655090) (100 μL/well, 8000 cells/well) with automatic liquid separator (Thermo Scientific). Then place into a 37° C., 5% CO2 incubator for 3 days. Cell control well: no compound, only containing 0.5% DMSO.
5) adding chemiluminescent substrate Cell Titer-fluor to the cell well, after incubation for 30 minutes, detecting the signal by chemiluminescence detection system Envison (Ex at 405 nm and read at 515 nm). The effect of the compounds on the activity of HCV replicon cells was analyzed according to the luminescence data, which was used to calculate the CC50 values.
The EC50 or CC50 values were obtained by nonlinear fitting analysis on inhibition percentage (inh %) data with GraphPad Prism software.

[3] = test system: HCV genotype 1a (HCV-1a) replicon cells; assay: HCV genotype 1a replicon luciferase assay (EC50); assay type: cell-based, hepatitis C virus genotype 1a (H77 clone); details: Hepatitis C virus, 72 h, 3 days, luciferase (Bright-Glo)
In short: (§1)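 Stable subgenomic replicon cells (1a: H77 with K1691R, K2040R, S2204I; 1b: Con1 with E1202G, T1280I, K1846T) carrying luciferase and neo were seeded at 8000 cells/well onto compounds (5-fold, 6-point, top 100, 10 or 1 nM; 0.5% DMSO) for 3 days at 37 °C. Bright-Glo luminescence gave EC50 by nonlinear fit.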

[4] = test system: HCV genotype 1b (HCV-1b) replicon cells; assay: HCV genotype 1b replicon luciferase assay (EC50); assay type: cell-based, hepatitis C virus genotype 1b (Con1 clone); details: Hepatitis C virus, 72 h, 3 days, luciferase (Bright-Glo)
In short: as §1

For `COC(=O)NC(C(=O)N1CCCC1c1ccc(-c2ccc(-c3ccc(-c4[nH]c(C5CCCN5C(=O)[C@H](NC(=O)OC)C(C)C)c5c4CCC5)cc3)cc2)[nH]1)C1CCOCC1` (stereo partly shown) [AG_038], the CC50 at 3 days [1] was over 10 nM, the CC50 [2] was over 100 nM and the pEC50 [3] was 7.00 to 8.00. For the same compound, the pEC50 [4] was 9.00 to 10.00.
Work on `COC(=O)NC(C(=O)N1CCCC1c1[nH]c(-c2ccc(-c3ccc(-c4cnc([C@@H]5CCCN5C(=O)C(NC(=O)OC)C5CCOCC5)[nH]4)cc3)cc2)c2c1CCCC2)C1CCOCC1` (stereo partly shown) [AG_045] yielded a CC50 at 3 days [1] of over 100 nM, a CC50 [2] of over 100 nM and a pEC50 [3] of 7.00 to 8.00. It also gave a pEC50 [4] of 9.00 to 10.00.
Work on `COC(=O)N[C@H](C(=O)N1CCC[C@H]1c1ncc(-c2ccc(-c3ccc(-c4ccc(C5CCCN5C(=O)[C@@H](NC(=O)OC)C(C)C)[nH]4)cc3)cc2)[nH]1)c1ccccc1` (stereo partly shown) [AG_052] yielded a CC50 at 3 days [1] of over 100 nM, a CC50 [2] of over 100 nM and a pEC50 [3] of 8.00 to 9.00. For the same compound, the pEC50 [4] was 10.00 to 12.00.
`COC(=O)NC(C(=O)N1CCC[C@H]1c1ncc(-c2ccc(-c3ccc(-c4[nH]c(C5CCCN5C(=O)[C@@H](NC(=O)OC)C(C)C)c5c4CCC5)cc3)cc2)[nH]1)C1CCOCC1` (stereo partly shown) [AG_035] gave a CC50 at 3 days [1] of over 10 nM, a CC50 [2] of over 100 nM and a pEC50 [3] of 7.00 to 8.00. For the same compound, the pEC50 [4] was 10.00 to 12.00.
With `COC(=O)N[C@H](C(=O)N1CCC[C@H]1c1ncc(-c2ccc(-c3ccc(-c4ccc(C5CCCN5C(=O)[C@@H](NC(=O)OC)C5CCOCC5)[nH]4)cc3)cc2)[nH]1)C(C)C` (stereo partly shown) [AG_037] the CC50 at 3 days [1] was over 10 nM, the CC50 [2] was over 100 nM and the pEC50 [3] was 9.00 to 10.00. The pEC50 [4] was 10.00 to 12.00.
`COC(=O)NC(C(=O)N1CCC[C@H]1c1ncc(-c2ccc(-c3ccc(-c4[nH]c(C5CCCN5C(=O)[C@@H](NC(=O)OC)C(C)C)c5c4CCC5)cc3)cc2)[nH]1)C1CCOC1` (stereo partly shown) [AG_049] showed a CC50 at 3 days [1] of over 100 nM, a CC50 [2] of over 100 nM and a pEC50 [3] of 7.00 to 8.00. It also gave a pEC50 [4] of 10.00 to 12.00.
Compound `COC(=O)N[C@H](C(=O)N1CCCC1c1ccc(-c2ccc(-c3ccc(-c4cnc([C@@H]5CCCN5C(=O)[C@@H](NC(=O)OC)C(C)C)[nH]4)cc3)cc2)[nH]1)C(C)C` (stereo partly shown) [AG_001] has a CC50 at 3 days [1] of over 1 nM, a CC50 [2] of over 10 nM and a pEC50 [3] of 8.00 to 9.00. It also gave a pEC50 [4] of 10.00 to 12.00.
`COC(=O)N[C@H](C(=O)N1C[C@@H](OC)C[C@H]1c1ncc(-c2ccc(-c3ccc(-c4cnc([C@@H]5C6CCC(C6)[C@H]5C(=O)NCc5cccnc5)[nH]4)cc3)cc2)[nH]1)C(C)C` (stereo partly shown) [AA_230_A] showed a CC50 at 3 days [1] of over 1 nM, a pEC50 [3] of 9.00 to 10.00 and a pEC50 [4] of 10.00 to 12.00.
`COC(=O)N[C@H](C(=O)N1CCC[C@H]1c1ncc(-c2ccc(-c3ccc(-c4cnc(C5C6CCC(C6)[C@@H]5C(=O)NCc5cccnc5)[nH]4)cc3)cc2)[nH]1)C(C)C` (stereo partly shown) [AA_162_B] gave a CC50 at 3 days [1] of over 1 nM, a pEC50 [3] of 8.00 to 9.00 and a pEC50 [4] of 10.00 to 12.00.
Work on `COC(=O)N[C@H](C(=O)N1CCC[C@H]1c1ncc(-c2ccc3c(c2)[C@@](C)(O)c2cc(-c4cnc(C5C6CCC(C6)[C@H]5C(=O)NCc5cccnc5)[nH]4)ccc2-3)[nH]1)C(C)C` (stereo partly shown) [AA_241_A] yielded a CC50 at 3 days [1] of over 1 nM, a pEC50 [3] of 7.00 to 8.00 and a pEC50 [4] of 9.00 to 10.00.
For `COC(=O)N[C@H](C(=O)N1CCC[C@H]1c1[nH]c(-c2ccc(-c3ccc(-c4[nH]c([C@@H]5CCCN5C(=O)[C@@H](NC(=O)OC)C(C)C)c5c4CCC5)cc3)cc2)c2c1CCC2)C(C)C` [AG_026_A], the CC50 at 3 days [1] was over 10 nM, the pEC50 [3] was 7.00 to 8.00 and the pEC50 [4] was 9.00 to 10.00.
`COC(=O)N[C@H](C(=O)N1CCC[C@H]1c1ccc(-c2ccc(-c3ccc(-c4cnc([C@@H]5CC6(CCCC6)CN5C(=O)[C@@H](NC(=O)OC)[C@@H](C)OC)[nH]4)cc3)cc2)[nH]1)[C@@H](C)OC` [AG_110] gave a CC50 at 3 days [1] of over 1 nM, a pEC50 [3] of 9.00 to 10.00 and a pEC50 [4] of 10.00 to 12.00.
In the case of `COC(=O)N[C@H](C(=O)N1CCC[C@H]1c1ccc(-c2ccc(-c3ccc(-c4cnc([C@H](C)NC(=O)[C@@H](NC(=O)OC)[C@@H](C)OC)[nH]4)cc3)cc2)[nH]1)C(C)OC` (stereo partly shown) [AG_112], the CC50 at 3 days [1] was over 1 nM, the pEC50 [3] was 8.00 to 9.00 and the pEC50 [4] was 10.00 to 12.00.
